Data: patent publication US20250230193A1, “CYCLIC COMPOUND HAVING SELECTIVE KRAS INHIBITORY EFFECT ON HRAS AND NRAS” (CHUGAI SEIYAKU KABUSHIKI KAISHA, priority 2022, published 2025)

Key:
[1] = molecular target: GDP-bound NRAS wild-type protein (Homo sapiens, UniProt P01111); test: Binding to NRAS by surface plasmon resonance (SPR), Single Cycle Kinetics; conditions: SPR, GDP-bound NRAS wild-type vs GDP-bound KRAS wild-type
[2] = molecular target: GDP-bound HRAS wild-type protein (Homo sapiens, UniProt P01112); test: Binding to HRAS by surface plasmon resonance (SPR), Single Cycle Kinetics; conditions: SPR, GDP-bound HRAS wild-type vs GDP-bound KRAS wild-type
Chain of GDP-bound HRAS wild-type protein (P01112 whole entry): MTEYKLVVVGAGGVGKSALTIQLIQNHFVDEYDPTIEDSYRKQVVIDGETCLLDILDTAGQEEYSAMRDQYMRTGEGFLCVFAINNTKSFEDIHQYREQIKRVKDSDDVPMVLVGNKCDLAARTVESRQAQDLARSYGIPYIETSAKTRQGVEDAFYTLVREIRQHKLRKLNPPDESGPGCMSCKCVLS

Chain of GDP-bound NRAS wild-type protein (P01111 whole entry): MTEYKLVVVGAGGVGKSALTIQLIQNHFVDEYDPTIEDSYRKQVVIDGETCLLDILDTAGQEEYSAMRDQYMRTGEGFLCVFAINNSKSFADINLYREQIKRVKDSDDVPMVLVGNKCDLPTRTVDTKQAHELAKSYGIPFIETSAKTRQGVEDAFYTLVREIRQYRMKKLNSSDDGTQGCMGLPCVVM

SMILES: CCO[C@@H]1C[C@H]2C(=O)NC3(CC(C)(C)C3)C(=O)N(C)[C@@H](C(CC)CC)C(=O)N(C)[C@H](C(=O)N(C)C)CC(=O)N(C)[C@@H](C)C(=O)N[C@@H]([C@@H](C)CC)C(=O)N(C)CC(=O)N(C)[C@H]3C/C=C\CCN(C3=O)[C@@H](Cc3ccc(C)cc3)C(=O)N(C)CC(=O)N[C@@H](CCc3cc(F)c(C(F)(F)F)c(F)c3)C(=O)N2C1 [PP2143]
- NRAS/KRAS (ratio of KD value with respect to NRAS to KD value with respect to KRAS) [1]: A (a compound having 10 or more and less than 20 is denoted as A)
- HRAS/KRAS (ratio of KD value with respect to HRAS to KD value with respect to KRAS) [2]: A (a compound having 10 or more and less than 20 is denoted as A)

SMILES: CCO[C@@H]1C[C@H]2C(=O)NC3(CC(C)(C)C3)C(=O)N(C)[C@@H](C(CC)CC)C(=O)N(C)[C@H](C(=O)N3CCCC3)CC(=O)N(C)[C@@H](COC)C(=O)N[C@@H]([C@@H](C)CC)C(=O)N(C)CC(=O)N(C)[C@H]3C/C=C\CCN(C3=O)[C@@H](Cc3ccc(C)cc3)C(=O)N(C)CC(=O)N[C@@H](CCc3ccc(C(F)(F)F)c(Cl)c3)C(=O)N2C1 [PP2144]
- NRAS/KRAS (ratio of KD value with respect to NRAS to KD value with respect to KRAS) [1]: AA (a compound having 20 or more is denoted as AA)
- HRAS/KRAS (ratio of KD value with respect to HRAS to KD value with respect to KRAS) [2]: A (a compound having 10 or more and less than 20 is denoted as A)

SMILES: CCO[C@@H]1C[C@H]2C(=O)NC3(CC(C)(C)C3)C(=O)N(C)[C@@H](C(CC)CC)C(=O)N(C)[C@H](C(=O)N3CCCC3)CC(=O)N(C)[C@@H](C)C(=O)N[C@@H]([C@@H](C)CC)C(=O)N(C)CC(=O)N(C)[C@H]3C/C=C\CCN(C3=O)[C@@H](Cc3ccc(C)cc3)C(=O)N(C)CC(=O)N[C@@H](CCc3cc(F)c(C(F)(F)F)c(F)c3)C(=O)N2C1 [PP2145]
- NRAS/KRAS (ratio of KD value with respect to NRAS to KD value with respect to KRAS) [1]: A (a compound having 10 or more and less than 20 is denoted as A)
- HRAS/KRAS (ratio of KD value with respect to HRAS to KD value with respect to KRAS) [2]: A (a compound having 10 or more and less than 20 is denoted as A)

SMILES: CCC[C@H]1C(=O)N[C@@H]([C@@H](C)CC)C(=O)N(C)CC(=O)N(C)[C@H]2C/C=C\CCN(C2=O)[C@@H](Cc2ccc(C)cc2)C(=O)N(C)CC(=O)N[C@@H](CCc2ccc(C(F)(F)F)c(Cl)c2)C(=O)N2C[C@H](OCC)C[C@H]2C(=O)NC2(CC(C)(C)C2)C(=O)N(C)[C@@H](C(CC)CC)C(=O)N(C)[C@H](C(=O)N(C)C)CC(=O)N1C [PP2146]
- NRAS/KRAS (ratio of KD value with respect to NRAS to KD value with respect to KRAS) [1]: A (a compound having 10 or more and less than 20 is denoted as A)
- HRAS/KRAS (ratio of KD value with respect to HRAS to KD value with respect to KRAS) [2]: A (a compound having 10 or more and less than 20 is denoted as A)

SMILES: CCO[C@@H]1C[C@H]2C(=O)NC3(CC(C)(C)C3)C(=O)N(C)[C@@H](C(CC)CC)C(=O)N(C)[C@H](C(=O)N(C)C)CC(=O)N(C)[C@@H](CC)C(=O)N[C@@H]([C@@H](C)CC)C(=O)N(C)CC(=O)N(C)[C@H]3C/C=C\CCN(C3=O)[C@@H](Cc3ccc(C)cc3)C(=O)N(C)CC(=O)N[C@@H](CCc3cc(F)c(C(F)(F)F)c(F)c3)C(=O)N2C1 [PP2147]
- NRAS/KRAS (ratio of KD value with respect to NRAS to KD value with respect to KRAS) [1]: A (a compound having 10 or more and less than 20 is denoted as A)
- HRAS/KRAS (ratio of KD value with respect to HRAS to KD value with respect to KRAS) [2]: B (a compound having 3 or more and less than 10 is denoted as B)

SMILES: CCO[C@@H]1C[C@H]2C(=O)NC3(CC(C)(C)C3)C(=O)N(C)[C@@H](C(CC)CC)C(=O)N(C)[C@H](C(=O)N(C)C)CC(=O)N(C)[C@@H](CC(C)C)C(=O)N[C@@H]([C@@H](C)CC)C(=O)N(C)CC(=O)N(C)[C@H]3C/C=C\CCN(C3=O)[C@@H](Cc3ccc(C)cc3)C(=O)N(C)CC(=O)N[C@@H](CCc3ccc(C(F)(F)F)c(Cl)c3)C(=O)N2C1 [PP2148]
- NRAS/KRAS (ratio of KD value with respect to NRAS to KD value with respect to KRAS) [1]: A (a compound having 10 or more and less than 20 is denoted as A)
- HRAS/KRAS (ratio of KD value with respect to HRAS to KD value with respect to KRAS) [2]: A (a compound having 10 or more and less than 20 is denoted as A)

SMILES: CCO[C@@H]1C[C@H]2C(=O)NC3(CC(C)(C)C3)C(=O)N(C)[C@@H](C(CC)CC)C(=O)N(C)[C@H](C(=O)N3CCCC3)CC(=O)N(C)[C@@H](CC)C(=O)N[C@@H]([C@@H](C)CC)C(=O)N(C)CC(=O)N(C)[C@H]3C/C=C\CCN(C3=O)[C@@H](Cc3ccc(C)cc3)C(=O)N(C)CC(=O)N[C@@H](CCc3cc(F)c(C(F)(F)F)c(F)c3)C(=O)N2C1 [PP2149]
- NRAS/KRAS (ratio of KD value with respect to NRAS to KD value with respect to KRAS) [1]: A (a compound having 10 or more and less than 20 is denoted as A)
- HRAS/KRAS (ratio of KD value with respect to HRAS to KD value with respect to KRAS) [2]: A (a compound having 10 or more and less than 20 is denoted as A)

SMILES: CCO[C@@H]1C[C@H]2C(=O)NC3(CC(C)(C)C3)C(=O)N(C)[C@@H](C(CC)CC)C(=O)N(C)[C@H](C(=O)N(C)C)CC(=O)N(C)[C@@H](C)C(=O)N[C@@H]([C@@H](C)CC)C(=O)N(C)CC(=O)N(C)[C@H]3C/C=C\CCN(C3=O)[C@@H](Cc3ccc(C)cc3)C(=O)N(C)CC(=O)N[C@@H](CCc3ccc(C(F)(F)F)c(Cl)c3)C(=O)N2C1 [PP2150]
- NRAS/KRAS (ratio of KD value with respect to NRAS to KD value with respect to KRAS) [1]: AA (a compound having 20 or more is denoted as AA)
- HRAS/KRAS (ratio of KD value with respect to HRAS to KD value with respect to KRAS) [2]: A (a compound having 10 or more and less than 20 is denoted as A)

SMILES: CCO[C@@H]1C[C@H]2C(=O)NC3(CC(C)(C)C3)C(=O)N(C)[C@@H](C(CC)CC)C(=O)N(C)[C@H](C(=O)N(C)C)CC(=O)N(C)[C@@H](CC3CCC3)C(=O)N[C@@H]([C@@H](C)CC)C(=O)N(C)CC(=O)N(C)[C@H]3C/C=C\CCN(C3=O)[C@@H](Cc3ccc(C)cc3)C(=O)N(C)CC(=O)N[C@@H](CCc3cc(F)c(C(F)(F)F)c(F)c3)C(=O)N2C1 [PP2151]
- NRAS/KRAS (ratio of KD value with respect to NRAS to KD value with respect to KRAS) [1]: A (a compound having 10 or more and less than 20 is denoted as A)
- HRAS/KRAS (ratio of KD value with respect to HRAS to KD value with respect to KRAS) [2]: A (a compound having 10 or more and less than 20 is denoted as A)

SMILES: CCO[C@@H]1C[C@H]2C(=O)NC3(CC(C)(C)C3)C(=O)N(C)[C@@H](C(CC)CC)C(=O)N(C)[C@H](C(=O)N3CCCC3)CC(=O)N(C)[C@@H](C)C(=O)N[C@@H]([C@@H](C)CC)C(=O)N(C)CC(=O)N(C)[C@H]3C/C=C\CCN(C3=O)[C@@H](Cc3ccc(C)cc3)C(=O)N(C)CC(=O)N[C@@H](CCc3ccc(C(F)(F)F)c(Cl)c3)C(=O)N2C1 [PP2152]
- NRAS/KRAS (ratio of KD value with respect to NRAS to KD value with respect to KRAS) [1]: AA (a compound having 20 or more is denoted as AA)
- HRAS/KRAS (ratio of KD value with respect to HRAS to KD value with respect to KRAS) [2]: A (a compound having 10 or more and less than 20 is denoted as A)

SMILES: CCO[C@@H]1C[C@H]2C(=O)NC3(CC(C)(C)C3)C(=O)N(C)[C@@H](C(CC)CC)C(=O)N(C)[C@H](C(=O)N(C)C)CC(=O)N(C)[C@@H](C(C)C)C(=O)N[C@@H]([C@@H](C)CC)C(=O)N(C)CC(=O)N(C)[C@H]3C/C=C\CCN(C3=O)[C@@H](Cc3ccc(C)cc3)C(=O)N(C)CC(=O)N[C@@H](CCc3cc(F)c(C(F)(F)F)c(F)c3)C(=O)N2C1 [PP2153]
- NRAS/KRAS (ratio of KD value with respect to NRAS to KD value with respect to KRAS) [1]: A (a compound having 10 or more and less than 20 is denoted as A)
- HRAS/KRAS (ratio of KD value with respect to HRAS to KD value with respect to KRAS) [2]: A (a compound having 10 or more and less than 20 is denoted as A)

SMILES: CCO[C@@H]1C[C@H]2C(=O)NC3(CC(C)(C)C3)C(=O)N(C)[C@@H](C(CC)CC)C(=O)N(C)[C@H](C(=O)N(C)C)CC(=O)N(C)[C@@H](CC)C(=O)N[C@@H]([C@@H](C)CC)C(=O)N(C)CC(=O)N(C)[C@H]3C/C=C\CCN(C3=O)[C@@H](Cc3ccc(C)cc3)C(=O)N(C)CC(=O)N[C@@H](CCc3ccc(C(F)(F)F)c(Cl)c3)C(=O)N2C1 [PP2154]
- NRAS/KRAS (ratio of KD value with respect to NRAS to KD value with respect to KRAS) [1]: A (a compound having 10 or more and less than 20 is denoted as A)
- HRAS/KRAS (ratio of KD value with respect to HRAS to KD value with respect to KRAS) [2]: A (a compound having 10 or more and less than 20 is denoted as A)

SMILES: CCO[C@@H]1C[C@H]2C(=O)NC3(CC(C)(C)C3)C(=O)N(C)[C@@H](C(CC)CC)C(=O)N(C)[C@H](C(=O)N(C)C)CC(=O)N(C)[C@@H](CC3CC3)C(=O)N[C@@H]([C@@H](C)CC)C(=O)N(C)CC(=O)N(C)[C@H]3C/C=C\CCN(C3=O)[C@@H](Cc3ccc(C(F)(F)F)cc3)C(=O)N(C)CC(=O)N[C@@H](CCc3ccc(C(F)(F)F)c(OC)c3)C(=O)N2C1 [PP2155]
- NRAS/KRAS (ratio of KD value with respect to NRAS to KD value with respect to KRAS) [1]: A (a compound having 10 or more and less than 20 is denoted as A)
- HRAS/KRAS (ratio of KD value with respect to HRAS to KD value with respect to KRAS) [2]: B (a compound having 3 or more and less than 10 is denoted as B)

SMILES: CCO[C@@H]1C[C@H]2C(=O)NC3(CC(C)(C)C3)C(=O)N(C)[C@@H](C(CC)CC)C(=O)N(C)[C@H](C(=O)N(C)C)CC(=O)N(C)[C@@H](CC3CCC3)C(=O)N[C@@H]([C@@H](C)CC)C(=O)N(C)CC(=O)N(C)[C@H]3C/C=C\CCN(C3=O)[C@@H](Cc3ccc(C)cc3)C(=O)N(C)CC(=O)N[C@@H](CCc3ccc(C(F)(F)F)c(Cl)c3)C(=O)N2C1 [PP2156]
- NRAS/KRAS (ratio of KD value with respect to NRAS to KD value with respect to KRAS) [1]: AA (a compound having 20 or more is denoted as AA)
- HRAS/KRAS (ratio of KD value with respect to HRAS to KD value with respect to KRAS) [2]: A (a compound having 10 or more and less than 20 is denoted as A)

SMILES: CCO[C@@H]1C[C@H]2C(=O)NC3(CC(C)(C)C3)C(=O)N(C)[C@@H](C(CC)CC)C(=O)N(C)[C@H](C(=O)N(C)C)CC(=O)N(C)[C@@H](COC)C(=O)N[C@@H]([C@@H](C)CC)C(=O)N(C)CC(=O)N(C)[C@H]3C/C=C\CCN(C3=O)[C@@H](Cc3ccc(C(F)(F)F)cc3)C(=O)N(C)CC(=O)N[C@@H](CCc3ccc(C(F)(F)F)c(OC)c3)C(=O)N2C1 [PP2157]
- NRAS/KRAS (ratio of KD value with respect to NRAS to KD value with respect to KRAS) [1]: A (a compound having 10 or more and less than 20 is denoted as A)
- HRAS/KRAS (ratio of KD value with respect to HRAS to KD value with respect to KRAS) [2]: A (a compound having 10 or more and less than 20 is denoted as A)

SMILES: CCO[C@@H]1C[C@H]2C(=O)NC3(CC(C)(C)C3)C(=O)N(C)[C@@H](C(CC)CC)C(=O)N(C)[C@H](C(=O)N(C)C)CC(=O)N(C)[C@@H](C(C)C)C(=O)N[C@@H]([C@@H](C)CC)C(=O)N(C)CC(=O)N(C)[C@H]3C/C=C\CCN(C3=O)[C@@H](Cc3ccc(C)cc3)C(=O)N(C)CC(=O)N[C@@H](CCc3ccc(C(F)(F)F)c(Cl)c3)C(=O)N2C1 [PP2158]
- NRAS/KRAS (ratio of KD value with respect to NRAS to KD value with respect to KRAS) [1]: AA (a compound having 20 or more is denoted as AA)
- HRAS/KRAS (ratio of KD value with respect to HRAS to KD value with respect to KRAS) [2]: A (a compound having 10 or more and less than 20 is denoted as A)
